Data from PubChem BioAssay (NCI).
“And” between values parts separate entries of the source, which are not always exact repeats. Equal values may be shown once.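 Cells were grown in 96-well plates and exposed to each compound for 48 hours at five concentrations; endpoints were interpolated linearly between bracketing concentrations, or set to the highest concentration if not reached. At the GI50, growth is halved. At the TGI there is no net growth.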

Legend:
Assay in all cases: NCI anticancer screen, dose series, 48 h
HOP-62 NSCLC = test system: HOP-62 NSCLC
786-0 renal = test system: 786-0 renal
KM12 colon = test system: KM12 colon
SK-MEL-5 melanoma = test system: SK-MEL-5 melanoma
HCT-15 colon = test system: HCT-15 colon
SR leukemia = test system: SR leukemia
OVCAR-3 ovarian = test system: OVCAR-3 ovarian
MDA-MB-231 breast = test system: MDA-MB-231 breast
T-47D breast = test system: T-47D breast
PC-3 prostate = test system: PC-3 prostate

SMILES	TGI (HOP-62 NSCLC) [µM]	TGI (786-0 renal) [µM]	TGI (KM12 colon) [µM]	TGI (SK-MEL-5 melanoma) [µM]	TGI (HCT-15 colon) [µM]	TGI (SR leukemia) [µM]	TGI (OVCAR-3 ovarian) [µM]	GI50 (HOP-62 NSCLC) [µM]	GI50 (786-0 renal) [µM]	GI50 (KM12 colon) [µM]	GI50 (MDA-MB-231 breast) [µM]	TGI (MDA-MB-231 breast) [µM]	GI50 (SK-MEL-5 melanoma) [µM]	GI50 (HCT-15 colon) [µM]	GI50 (SR leukemia)	GI50 (T-47D breast) [µM]	TGI (T-47D breast) [µM]	GI50 (OVCAR-3 ovarian) [µM]	GI50 (PC-3 prostate) [µM]	TGI (PC-3 prostate) [µM]
Cc1cc(Cl)ccc1N1C(=O)C(=O)C(c2nc3ccccc3o2)C(=O)C1=O	> 100	> 100	> 100	> 100	> 100	> 100	> 100													
O=c1oc2c(cc1-c1ccccc1)C(O)Oc1ccccc1-2 (stereo not given)	78.8	> 100	23.4	16.5	> 100	13.7	> 100	10.3	11.6	3.04	15.5	> 100	3.8	5.04	2.89 µM	4.41	22.3	2.6		
C=C[Si](C)(C)COC(=O)/C(C#N)=C/C=C/c1ccccc1	> 100	> 100	> 100	> 100	> 100	79.9	> 100													
COC1C(O)CC(OC2CC(OC3CC(O[C@@H]4C(=O)c5c(cc6cc(OC7CC(OC8CC(O)C(O)C(C)O8)C(O)C(C)O7)c(C)c(O)c6c5O)C[C@H]4[C@H](OC)C(=O)[C@@H](O)[C@@H](C)O)OC(C)C3O)OC(C)C2O)OC1C (stereo not given in full)	3.87	> 100	> 12	0.032	22	0.558	0.101					> 100					0.203			
CCOC(=O)N1CCc2cc(OC)c(OC)cc2/C1=C/c1ccc(OC)c(OC)c1	> 100	> 100	> 100	44.4	> 100	> 100	> 100													
COc1ccc(C(=O)C/C(=N/NC(N)=S)C(=O)Nc2ccccc2)cc1		> 100	> 100	> 100	> 100		> 100													
NC1=NCC(c2ccccn2)C1c1ccc(F)cc1 (stereo not given)	> 100	> 100	> 100	> 100		> 100	> 100													
Cc1cccc(Cl)c1NC(=O)c1cccc([N+](=O)[O-])c1O	54.4	> 100	66		> 100		76.4													
COc1ccc(C2N3CCCCC3[C@@H]3c4[nH]c5ccccc5c4CCN23)c(OC)c1 (stereo not given in full)	> 100	> 100		32.7	> 100		85.3													
O=C([CH-]C(=O)c1ccccc1)c1ccccc1.[CH3-].[CH3-].[CH3-].[Sn+4]	94.9	33.1	> 100	35.1	27.3	11.5	71.8	22.9	10.2	18.1			8.21	5.51	1.93 µM			12.7		
CN(C)CCC(/C=C/c1ccccc1)=N\Nc1ccc(Cl)cc1	4.07	6.26	10.9	31.5	15.2		22.5													
NC(=NCCO)c1ccc(N2CCCN(c3ccc(C(N)=NCCO)cc3)CC2)cc1	> 100	> 100	> 100		> 100		> 100	91.7	> 100	> 100	> 100	> 100		> 100		> 100	> 100	> 100		
CC(C)(C)c1cc(-c2c3nc(c(-c4cc(C(C)(C)C)cc(C(C)(C)C)c4)c4ccc([nH]4)c(-c4cc(C(C)(C)C)cc(C(C)(C)C)c4)c4nc(c(-c5cc(C(C)(C)C)cc(C(C)(C)C)c5)c5ccc2[nH]5)C=C4)C=C3)cc(C(C)(C)C)c1	> 100	> 100	> 100	> 100	> 100	> 100	> 100													
CNC(C)[C@H]1CCC2C3CCC4C[C@@H](N(C)C(=O)c5ccccc5)CC[C@]4(C)C3CC[C@@]21C (stereo not given in full)	3.17	2.82	5.83	2.02	2.19		3.99	1.43	1.3	1.44	1.6	3.87	0.613	0.407		0.37	4.26	1.22	0.969	3.52
Cc1cccc2cc3cccc(C(=O)NCCN(C)C)c3nc12	0.502	11.5	6.12	0.825	1.5	0.118	5.38													
O=[N+]([O-])c1ccc2nc3ccscc-3c2c1	69.4	> 100	83.6	33.1	> 100		> 100													
COc1cc2c(c(OC)c1OC)C(=O)c1c-2n(CCCN=[N+]=[N-])c(=O)c2cc([N+](=O)[O-])ccc12	> 100	> 100	> 100	> 100	> 100	41.9	> 100	30.7	41	> 100	35.8	> 100	> 100	> 100	16.3 µM	> 100	> 100	> 100		
CCOc1ccc2c(c1)C(=O)c1c-2n(CCCN)c(=O)c2cc([N+](=O)[O-])ccc12	1.22	0.214	2.1	0.417	1.24	2.17	1.75	< 0.0108	0.0291	0.532	1.81	3.43	0.0771	0.209	< 0.01 µM			0.448	0.297	2.14
CC1NCCc2c1[nH]c1cc(O)ccc21 (stereo not given)	> 100	> 100	> 100	> 100	> 100		> 100													
O=C(Nc1nc(-c2ccccc2)cs1)c1cc(O)c(O)c(O)c1	30.6	10.6	26.9	20.7	> 100	19.9	13.6	5.73	3.38	8.02	1.58	24.4	3.6	3.14	1.62 µM	2.34	22.8	3.39		

SMILES	TGI (HOP-62 NSCLC) [µM]	TGI (786-0 renal) [µM]	TGI (KM12 colon) [µM]	TGI (SK-MEL-5 melanoma) [µM]	TGI (HCT-15 colon) [µM]	TGI (SR leukemia) [µM]	TGI (OVCAR-3 ovarian) [µM]	GI50 (HOP-62 NSCLC) [µM]	GI50 (786-0 renal) [µM]	GI50 (KM12 colon) [µM]	GI50 (MDA-MB-231 breast) [µM]	TGI (MDA-MB-231 breast) [µM]	GI50 (SK-MEL-5 melanoma) [µM]	GI50 (HCT-15 colon) [µM]	GI50 (SR leukemia)	GI50 (T-47D breast) [µM]	TGI (T-47D breast) [µM]	GI50 (OVCAR-3 ovarian) [µM]	GI50 (PC-3 prostate) [µM]	TGI (PC-3 prostate) [µM]
COc1cc(/C=C2\NC(=S)C3Cc4c(OC)c(C)c(OC)c(OC)c4C2N3C)c(OC)c(C)c1OC (stereo not given)	> 100	> 100	> 100	73.1		55.3	> 100													
CC(=O)OCC1OC(n2c(=S)n(-c3ccccc3)c(=O)c3cc(Br)ccc32)C(OC(C)=O)C(OC(C)=O)C1OC(C)=O (stereo not given)	> 100	> 100	> 100	> 100	> 100	> 100	> 100								> 100 µM and 12 µM					
COC(=O)[C@@H]1[C@H](O)[C@H](C)[C@H](O)[C@H](C)/C=C\C=C(C)C(=O)Nc2c(C)c(OC(C)=O)c3c(c2O)C(=O)C(C)=C2OCOC(=C23)C(C)=C[C@@](C)(O)[C@H](O)[C@@H](C)[C@H]1OC(C)=O	> 100	> 100	> 100	> 100		> 100						> 100								> 100
CCOC(=O)C1=C(C)N(NC(=O)OC)C2(N)N(NC(=O)OC)C(C)=C(C(=O)OCC)C12C#N (stereo not given)	> 100	> 100	> 100	> 100	> 100	> 100	> 100													
Cc1cc(S(=O)(=O)Nc2nc3ccccc3[nH]2)c(SCc2ccccc2)cc1Cl	> 100	> 100	> 100	> 100	> 100	> 100	58.4	22.7	62.9	40.4	18.2	51.5	> 100	> 100	26.1 µM			14.2	> 100	> 100
CC1(C)Cc2nnsc2C2=C1C(=O)CCS2	> 100	> 100	> 100	> 100	> 100		> 100													
CNC1=CC(=O)C2=C(C1=O)C1C3=C(C(=O)C(Br)=C(OC)C3=O)C2c2ccccc21 (stereo not given)	4.61	3.5	5.93	16.9	10.5		3.1	1.55	1.38	1.87	1.41	3.17	5.46	2.06		1.44	15.7	1.5	1.08	2.75
O=C1[C@@H]2C(c3ccncc3)=NO[C@@H]2C(=O)N1c1ccc(Cc2ccc(N3C(=O)[C@H]4C(c5ccncc5)=NO[C@H]4C3=O)cc2)cc1	> 100	> 100	> 100	> 100	> 100		> 100													
Cc1nc2ccccc2c(/C=C/c2ccccc2)c1C(=O)/C=C/c1ccc(Cl)cc1		2.99	4.78	3.04		3.75	2.91		1.58	1.86	1.46	4	1.62		0.54 µM			1.48		
CC(=O)Oc1ccccc1C(=O)NCCC[Se]C#N	2.92	4.38	16.7		5.06	9.4		1.51	2.1	2.84				2.08	2.02 µM	3.19	17.8		1.93	5.47
NCCn1cnc2nc(NC(=O)c3ccccc3)[nH]c(=O)c21	> 100	> 100	> 100		> 100	> 100	> 100													
COC(=O)c1ccc(NC(N)=NCC(C)(C)COc2ccc(C(F)(F)F)cc2)nc1	3.2	2.83			3.08		3.17	1.67	1.46		1.7	3.39		1.56		1.37	3.21	1.64	1.38	2.75
C/C=C/C=C/CCCCCCCCCCCCC[C@]1(OC)C=CC(CC(=O)OC)OO1 (stereo not given in full)	> 100	33.4	36.3	31.1	29.5		42.2	43.9	17.1	17.9				16				22.1		
Cc1cccc(C)c1NC(=O)CCCC(=O)C(C#N)c1ccc(Cl)cc1 (stereo not given)	> 100	> 100	> 100	> 100	> 100	> 100	> 100													
Cc1cc(Cl)cc2c1NC(=O)C2(O)CC(=O)c1ccc(F)cc1 (stereo not given)	> 100	> 100	> 100		> 100		96.5													
Cc1ccccc1NC(=O)C(=O)CC(=O)C1CCOC1=O (stereo not given)	> 100	> 100	> 100	> 100	> 100		> 100													
COc1ccc(/C(=C\c2cc(OC)c(OC)c(OC)c2)C(=O)O)cc1	> 100	> 100	85.6	41.7	> 100	> 100	> 100													
OCC#CCCCCOCC#Cc1ccccc1C#CCOCCCCC#CCO		> 100	40.5	30.5	34.7	> 100	45.7		36.9	19.6	16.1	38.3	15.1	16.3	43.6 µM			18.7	40.6	98.4
CCOC(=O)C1=C(c2ccccc2)NC(c2ccccc2)=C(C(=O)OCC)c2c1c(=O)cc[nH]c2=O	> 100	> 100	> 100		> 100	> 100	> 100													
Cc1ccc(S(=O)(=O)N[C@@H](Cc2ccccc2)C(=O)CCl)cc1	39.8	27	38	28.3	27.5		24.2		10.6	18.2				10.8		21.4	> 100	9.5	5.54	22.6
